Data as given in PubChem BioAssay (NCI).
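Each compound was tested at five concentrations against cells in 96-well plates for 48 hours. TGI denotes the concentration required for complete inhibition of growth.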

Key:
Test in all cases: NCI tumour cell line growth inhibition, 48 h
[1] = system: SF-539 CNS
[2] = system: OVCAR-4 ovarian
[3] = system: RXF 393 renal
[4] = system: NCI-H23 lung
[5] = system: UACC-62 melanoma
[6] = system: BT-549 breast
[7] = system: 786-0 renal
[8] = system: SF-295 CNS
[9] = system: SW-620 colon
[10] = system: SNB-19 CNS
[11] = system: HCT-116 colon
[12] = system: NCI-H460 lung
[13] = system: DU-145 prostate
[14] = system: M14 melanoma
[15] = system: OVCAR-3 ovarian
[16] = system: OVCAR-8 ovarian
[17] = system: KM12 colon
[18] = system: SK-MEL-2 melanoma
[19] = system: HCC-2998 colon

SMILES | TGI [1] | TGI [2] | TGI [3] | TGI [4] | TGI [5] | TGI [6] | TGI [7] | TGI [8] | TGI [9] | TGI [10] | TGI [11] | TGI [12] | TGI [13] | TGI [14] | TGI [15] | TGI [16] | TGI [17] | TGI [18] | TGI [19]
COc1cc(Nc2cnc3cc(F)c(F)cc3n2)cc(OC)c1OC | > 100 µM | > 100 µM | > 100 µM | > 100 µM | > 100 µM | > 100 µM | > 100 µM | > 100 µM | > 100 µM | > 100 µM | > 100 µM | > 100 µM | > 100 µM | > 100 µM | > 100 µM | > 100 µM | > 100 µM | > 100 µM | –
CN(C)Cc1cc(C(=O)/C=C/c2ccc(Cl)cc2)cc(CN(C)C)c1O | 38.7 µM | – | 30.3 µM | 39.4 µM | – | 11.3 µM | 20.2 µM | 26 µM | 20.5 µM | 24.1 µM | 26.5 µM | 21.8 µM | 24.4 µM | – | 10.8 µM | 51.3 µM | 19.6 µM | – | 34.1 µM
CC1=C(C#N)C(C#N)(C#N)C(NN(C)C)C1 (stereo not drawn) | > 100 µM | > 100 µM | 31.3 µM | 40.8 µM | 61.6 µM | – | 25.6 µM | 79.1 µM | > 100 µM | – | 29.2 µM | – | 33.8 µM | > 100 µM | – | > 100 µM | 31.8 µM | 39.5 µM | 32.1 µM
O=C1OC[C@@H]2Cc3cc4c(cc3[C@H](c3ccc5c(c3)OCO5)[C@@H]12)OCO4 | – | > 25 µM | – | > 25 µM | – | > 25 µM | > 25 µM | > 25 µM | – | > 25 µM | > 25 µM | > 25 µM | > 25 µM | > 25 µM | > 25 µM | > 25 µM | > 25 µM | > 25 µM | > 25 µM
